PMC9329436, “Optimization of the 4-anilinoquin(az)oline scaffold as epidermal growth factor receptor (EGFR) inhibitors for chordoma utilizing a toxicology profiling assay platform” (Scientific Reports, 2022)
Where two headings read alike, the source gives them in different places.

Experiments:
Format in all cases: biochemical
[1] = target: T1, 320 wild-type protein kinases (Homo sapiens, UniProt O14920); settings: IKK-beta, singlicate
T1 sequence (O14920 1-756): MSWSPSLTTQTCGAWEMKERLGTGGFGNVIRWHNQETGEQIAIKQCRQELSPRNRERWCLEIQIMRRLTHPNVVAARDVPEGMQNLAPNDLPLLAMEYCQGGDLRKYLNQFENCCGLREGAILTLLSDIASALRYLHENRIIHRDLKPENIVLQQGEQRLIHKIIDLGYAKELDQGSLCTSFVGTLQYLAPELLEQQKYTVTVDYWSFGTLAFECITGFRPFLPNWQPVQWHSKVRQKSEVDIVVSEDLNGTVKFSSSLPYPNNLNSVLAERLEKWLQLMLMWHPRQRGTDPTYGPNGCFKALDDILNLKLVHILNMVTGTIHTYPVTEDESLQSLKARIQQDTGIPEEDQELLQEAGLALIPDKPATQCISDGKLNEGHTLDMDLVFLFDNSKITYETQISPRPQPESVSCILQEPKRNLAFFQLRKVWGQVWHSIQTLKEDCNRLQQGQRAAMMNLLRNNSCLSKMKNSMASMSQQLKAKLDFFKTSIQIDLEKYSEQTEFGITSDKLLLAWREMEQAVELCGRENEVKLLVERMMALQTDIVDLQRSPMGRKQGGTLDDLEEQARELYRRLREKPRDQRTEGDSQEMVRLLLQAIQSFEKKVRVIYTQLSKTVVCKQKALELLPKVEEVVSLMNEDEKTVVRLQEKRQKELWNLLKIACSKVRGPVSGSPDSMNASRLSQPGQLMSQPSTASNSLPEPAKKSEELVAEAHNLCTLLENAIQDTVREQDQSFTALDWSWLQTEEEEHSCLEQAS
From the text: (§1) Table S4. Profiling of two compounds at two concentrations against 320 wild-type protein kinases; singlicate measurement; Residual activities (% of control).

[2] = target: 320 wild-type protein kinases (Homo sapiens, UniProt P23443); settings: kinase S6K, singlicate
320 wild-type protein kinases (Homo sapiens, UniProt P23443), sequence (P23443 whole entry): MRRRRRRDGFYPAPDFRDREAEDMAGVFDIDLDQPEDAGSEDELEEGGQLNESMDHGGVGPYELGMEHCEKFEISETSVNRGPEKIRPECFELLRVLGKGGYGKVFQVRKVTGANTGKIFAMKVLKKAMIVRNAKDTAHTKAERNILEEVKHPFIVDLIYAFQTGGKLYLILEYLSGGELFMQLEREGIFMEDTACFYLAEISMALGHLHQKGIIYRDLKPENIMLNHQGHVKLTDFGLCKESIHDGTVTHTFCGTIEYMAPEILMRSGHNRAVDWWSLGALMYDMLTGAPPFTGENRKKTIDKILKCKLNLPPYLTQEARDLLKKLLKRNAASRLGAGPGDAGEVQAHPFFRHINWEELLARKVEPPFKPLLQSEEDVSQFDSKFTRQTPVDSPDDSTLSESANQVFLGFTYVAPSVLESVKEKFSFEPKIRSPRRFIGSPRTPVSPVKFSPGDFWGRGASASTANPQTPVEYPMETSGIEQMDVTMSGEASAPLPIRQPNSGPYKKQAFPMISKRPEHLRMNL
From the text: as §1

[3] = target: T2, 320 wild-type protein kinases (Homo sapiens, UniProt P36896); settings: ACV-R1B, singlicate
T2 sequence (P36896 24-505): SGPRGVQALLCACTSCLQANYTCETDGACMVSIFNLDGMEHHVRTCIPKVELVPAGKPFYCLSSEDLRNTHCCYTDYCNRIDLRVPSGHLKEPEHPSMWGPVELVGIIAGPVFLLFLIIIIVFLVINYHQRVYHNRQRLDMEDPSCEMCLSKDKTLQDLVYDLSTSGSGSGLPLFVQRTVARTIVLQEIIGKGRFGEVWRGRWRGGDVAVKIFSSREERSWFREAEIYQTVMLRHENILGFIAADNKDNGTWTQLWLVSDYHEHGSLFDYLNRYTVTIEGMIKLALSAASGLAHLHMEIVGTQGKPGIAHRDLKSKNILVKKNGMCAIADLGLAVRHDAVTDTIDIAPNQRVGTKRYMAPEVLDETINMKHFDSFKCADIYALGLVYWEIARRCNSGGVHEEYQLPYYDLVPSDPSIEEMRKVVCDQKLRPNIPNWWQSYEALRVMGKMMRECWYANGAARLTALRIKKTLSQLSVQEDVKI
From the text: as §1

[4] = target: 320 wild-type protein kinases (Homo sapiens, UniProt P49760); settings: singlicate
320 wild-type protein kinases (Homo sapiens, UniProt P49760), sequence (P49760 whole entry): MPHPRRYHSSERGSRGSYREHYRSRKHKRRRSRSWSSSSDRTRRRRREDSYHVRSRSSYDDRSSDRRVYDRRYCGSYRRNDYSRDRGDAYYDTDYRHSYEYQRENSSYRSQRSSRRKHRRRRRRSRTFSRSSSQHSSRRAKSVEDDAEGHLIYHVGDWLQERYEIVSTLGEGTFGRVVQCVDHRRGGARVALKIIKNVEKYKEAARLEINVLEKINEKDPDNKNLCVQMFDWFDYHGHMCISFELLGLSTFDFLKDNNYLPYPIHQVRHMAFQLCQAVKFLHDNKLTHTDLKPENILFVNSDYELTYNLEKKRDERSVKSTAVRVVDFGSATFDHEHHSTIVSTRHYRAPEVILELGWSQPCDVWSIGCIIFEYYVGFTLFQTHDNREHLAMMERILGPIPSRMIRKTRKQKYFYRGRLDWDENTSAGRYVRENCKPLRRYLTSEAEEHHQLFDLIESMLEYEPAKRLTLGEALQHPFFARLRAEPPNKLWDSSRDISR
From the text: as §1

[5] = target: T3, 320 wild-type protein kinases (Homo sapiens, UniProt P51817); settings: kinase PRKX, singlicate
T3 sequence (P51817 1-358): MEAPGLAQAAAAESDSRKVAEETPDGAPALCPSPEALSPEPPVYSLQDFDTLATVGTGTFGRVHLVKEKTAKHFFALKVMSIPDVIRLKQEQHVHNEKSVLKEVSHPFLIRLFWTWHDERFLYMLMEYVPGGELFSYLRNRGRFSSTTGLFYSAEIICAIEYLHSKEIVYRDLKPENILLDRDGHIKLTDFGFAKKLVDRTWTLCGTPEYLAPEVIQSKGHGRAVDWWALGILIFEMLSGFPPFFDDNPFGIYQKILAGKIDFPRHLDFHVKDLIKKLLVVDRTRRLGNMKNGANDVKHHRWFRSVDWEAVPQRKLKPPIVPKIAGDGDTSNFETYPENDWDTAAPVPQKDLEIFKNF
From the text: as §1

[6] = target: 320 wild-type protein kinases (Homo sapiens, UniProt Q13164); settings: singlicate
320 wild-type protein kinases (Homo sapiens, UniProt Q13164), sequence (Q13164 whole entry): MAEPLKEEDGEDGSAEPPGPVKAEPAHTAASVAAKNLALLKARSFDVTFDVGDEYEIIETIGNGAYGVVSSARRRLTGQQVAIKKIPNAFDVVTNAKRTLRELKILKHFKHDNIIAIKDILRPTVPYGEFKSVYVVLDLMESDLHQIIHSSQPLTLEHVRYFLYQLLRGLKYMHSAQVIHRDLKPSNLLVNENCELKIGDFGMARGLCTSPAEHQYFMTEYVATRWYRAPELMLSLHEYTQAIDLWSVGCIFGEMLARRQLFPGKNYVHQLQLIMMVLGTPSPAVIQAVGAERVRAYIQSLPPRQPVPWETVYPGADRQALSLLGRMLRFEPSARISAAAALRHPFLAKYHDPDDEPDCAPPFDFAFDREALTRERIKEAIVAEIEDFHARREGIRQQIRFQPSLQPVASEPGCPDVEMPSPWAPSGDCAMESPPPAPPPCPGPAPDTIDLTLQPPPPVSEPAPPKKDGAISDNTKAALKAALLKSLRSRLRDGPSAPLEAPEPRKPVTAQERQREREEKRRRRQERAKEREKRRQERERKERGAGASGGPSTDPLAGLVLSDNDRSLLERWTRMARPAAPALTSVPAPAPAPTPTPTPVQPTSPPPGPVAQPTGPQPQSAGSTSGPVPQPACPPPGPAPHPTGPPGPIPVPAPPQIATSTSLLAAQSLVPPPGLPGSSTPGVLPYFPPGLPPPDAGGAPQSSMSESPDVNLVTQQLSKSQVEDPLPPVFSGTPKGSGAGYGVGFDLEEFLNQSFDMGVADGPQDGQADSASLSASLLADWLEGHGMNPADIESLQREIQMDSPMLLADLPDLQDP
From the text: as §1

[7] = target: 320 wild-type protein kinases (Homo sapiens, UniProt Q13177); settings: singlicate
From the text: as §1

[8] = target: 320 wild-type protein kinases (Homo sapiens, UniProt Q14289); settings: kinase PYK2, singlicate
320 wild-type protein kinases (Homo sapiens, UniProt Q14289), sequence (Q14289 whole entry): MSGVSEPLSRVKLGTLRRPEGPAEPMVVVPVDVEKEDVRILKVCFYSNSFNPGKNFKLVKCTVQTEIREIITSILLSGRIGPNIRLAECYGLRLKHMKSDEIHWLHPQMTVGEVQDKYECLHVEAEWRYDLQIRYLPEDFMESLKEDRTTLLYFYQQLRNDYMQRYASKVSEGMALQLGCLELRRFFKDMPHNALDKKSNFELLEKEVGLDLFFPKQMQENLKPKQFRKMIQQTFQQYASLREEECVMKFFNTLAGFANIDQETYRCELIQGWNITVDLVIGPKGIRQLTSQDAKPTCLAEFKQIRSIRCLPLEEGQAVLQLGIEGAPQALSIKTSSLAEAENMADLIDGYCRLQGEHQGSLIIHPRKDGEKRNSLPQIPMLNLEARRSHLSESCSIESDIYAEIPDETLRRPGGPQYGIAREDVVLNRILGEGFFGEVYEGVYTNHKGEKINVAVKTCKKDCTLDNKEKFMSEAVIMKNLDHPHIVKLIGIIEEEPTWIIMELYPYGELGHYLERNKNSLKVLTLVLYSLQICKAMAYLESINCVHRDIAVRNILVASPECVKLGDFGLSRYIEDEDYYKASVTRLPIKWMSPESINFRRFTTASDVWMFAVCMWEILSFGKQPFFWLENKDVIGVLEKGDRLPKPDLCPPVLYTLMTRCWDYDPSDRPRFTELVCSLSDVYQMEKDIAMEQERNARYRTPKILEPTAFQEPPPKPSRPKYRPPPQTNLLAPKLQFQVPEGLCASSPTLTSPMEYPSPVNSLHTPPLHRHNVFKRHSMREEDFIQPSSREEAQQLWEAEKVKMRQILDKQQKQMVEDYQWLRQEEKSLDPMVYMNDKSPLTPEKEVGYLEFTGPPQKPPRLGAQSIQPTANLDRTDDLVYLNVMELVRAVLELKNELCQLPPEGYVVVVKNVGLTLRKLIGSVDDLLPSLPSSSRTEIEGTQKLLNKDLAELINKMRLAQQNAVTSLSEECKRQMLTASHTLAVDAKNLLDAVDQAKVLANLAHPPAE
From the text: as §1

[9] = target: 320 wild-type protein kinases (Homo sapiens, UniProt Q15349); settings: kinase RPS6KA2, singlicate
320 wild-type protein kinases (Homo sapiens, UniProt Q15349), sequence (Q15349 whole entry): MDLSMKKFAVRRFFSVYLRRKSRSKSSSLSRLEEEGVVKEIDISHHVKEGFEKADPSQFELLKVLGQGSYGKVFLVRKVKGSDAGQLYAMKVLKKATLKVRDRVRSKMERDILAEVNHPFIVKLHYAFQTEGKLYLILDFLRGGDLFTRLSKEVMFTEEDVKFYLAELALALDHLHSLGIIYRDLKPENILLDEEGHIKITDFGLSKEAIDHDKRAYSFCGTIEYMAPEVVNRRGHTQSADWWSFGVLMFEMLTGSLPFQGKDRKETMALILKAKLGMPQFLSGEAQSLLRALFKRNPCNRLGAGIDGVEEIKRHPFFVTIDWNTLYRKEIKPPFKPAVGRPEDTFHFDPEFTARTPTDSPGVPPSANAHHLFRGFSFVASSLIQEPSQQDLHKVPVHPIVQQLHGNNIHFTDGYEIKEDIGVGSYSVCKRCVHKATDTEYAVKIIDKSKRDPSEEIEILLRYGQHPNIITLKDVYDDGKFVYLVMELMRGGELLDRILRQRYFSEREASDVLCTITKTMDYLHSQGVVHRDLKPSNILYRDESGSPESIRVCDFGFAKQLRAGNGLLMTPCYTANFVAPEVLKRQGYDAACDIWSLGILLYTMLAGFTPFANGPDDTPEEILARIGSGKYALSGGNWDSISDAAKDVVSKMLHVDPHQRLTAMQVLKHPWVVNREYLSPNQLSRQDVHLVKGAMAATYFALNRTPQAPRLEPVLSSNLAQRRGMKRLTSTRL
From the text: as §1

[10] = target: 320 wild-type protein kinases (Homo sapiens, UniProt Q16816); settings: singlicate
320 wild-type protein kinases (Homo sapiens, UniProt Q16816), sequence (Q16816 whole entry): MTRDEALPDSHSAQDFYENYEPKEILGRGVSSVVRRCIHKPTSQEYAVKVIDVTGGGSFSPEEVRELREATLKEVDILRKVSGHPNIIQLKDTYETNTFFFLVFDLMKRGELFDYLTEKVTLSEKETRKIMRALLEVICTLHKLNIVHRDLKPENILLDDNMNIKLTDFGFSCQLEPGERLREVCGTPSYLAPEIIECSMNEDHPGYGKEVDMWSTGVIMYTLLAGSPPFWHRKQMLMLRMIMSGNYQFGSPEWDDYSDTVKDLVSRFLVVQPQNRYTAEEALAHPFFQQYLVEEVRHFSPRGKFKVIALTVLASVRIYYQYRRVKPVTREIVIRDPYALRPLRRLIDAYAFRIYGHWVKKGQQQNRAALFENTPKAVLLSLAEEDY
From the text: as §1

[11] = target: 320 wild-type protein kinases (Homo sapiens, UniProt Q9BQI3); settings: HRI, singlicate
320 wild-type protein kinases (Homo sapiens, UniProt Q9BQI3), sequence (Q9BQI3 whole entry): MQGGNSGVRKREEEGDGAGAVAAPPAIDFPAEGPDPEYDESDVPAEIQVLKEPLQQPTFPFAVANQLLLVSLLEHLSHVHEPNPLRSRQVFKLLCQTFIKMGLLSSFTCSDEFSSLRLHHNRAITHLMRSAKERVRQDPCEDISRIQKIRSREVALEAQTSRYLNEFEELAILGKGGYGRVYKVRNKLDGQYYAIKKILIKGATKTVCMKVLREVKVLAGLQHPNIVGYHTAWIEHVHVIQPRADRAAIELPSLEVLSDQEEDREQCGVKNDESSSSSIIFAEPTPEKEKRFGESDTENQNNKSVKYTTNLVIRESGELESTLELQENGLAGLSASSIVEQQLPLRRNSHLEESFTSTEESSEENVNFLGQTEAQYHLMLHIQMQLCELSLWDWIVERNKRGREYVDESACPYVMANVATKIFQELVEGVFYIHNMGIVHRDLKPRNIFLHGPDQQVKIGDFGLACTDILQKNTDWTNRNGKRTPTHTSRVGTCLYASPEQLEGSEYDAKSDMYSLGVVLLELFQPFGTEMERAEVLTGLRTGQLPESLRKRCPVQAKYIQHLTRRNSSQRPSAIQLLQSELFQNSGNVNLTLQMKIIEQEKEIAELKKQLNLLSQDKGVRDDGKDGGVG
From the text: as §1

[12] = target: 320 wild-type protein kinases (Homo sapiens, UniProt Q9HC98); settings: singlicate
320 wild-type protein kinases (Homo sapiens, UniProt Q9HC98), sequence (Q9HC98 whole entry): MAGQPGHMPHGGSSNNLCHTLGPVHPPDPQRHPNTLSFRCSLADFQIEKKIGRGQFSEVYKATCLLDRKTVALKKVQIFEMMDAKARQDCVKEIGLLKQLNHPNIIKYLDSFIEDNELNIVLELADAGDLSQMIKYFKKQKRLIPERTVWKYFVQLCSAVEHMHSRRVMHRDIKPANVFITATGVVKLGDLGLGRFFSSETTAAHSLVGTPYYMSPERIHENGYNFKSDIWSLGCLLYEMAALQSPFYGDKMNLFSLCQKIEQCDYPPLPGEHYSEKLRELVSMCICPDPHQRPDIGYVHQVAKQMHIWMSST
From the text: as §1

Row | SMILES | Residual activity ([1]; 1.0E-06 M) | Residual activity ([1]; 1.0E-07 M) | Residual activity, S6K ([2]; assay conc. 1.0E-06 M) | Residual activity, S6K ([2]; assay conc. 1.0E-07 M) | Residual activity ([3]; 1.0E-06 M) | Residual activity ([3]; 1.0E-07 M) | Residual activity ([4]; CLK2, 1.0E-06 M) | Residual activity ([4]; CLK2, 1.0E-07 M) | Residual activity, PRKX ([5]; assay conc. 1.0E-06 M) | Residual activity, PRKX ([5]; assay conc. 1.0E-07 M) | Residual activity ([6]; ERK5, 1.0E-06 M) | Residual activity ([6]; ERK5, 1.0E-07 M) | Residual activity ([7]; PAK2, 1.0E-06 M) | Residual activity ([7]; PAK2, 1.0E-07 M) | Residual activity, PYK2 ([8]; assay conc. 1.0E-06 M) | Residual activity, PYK2 ([8]; assay conc. 1.0E-07 M) | Residual activity, RPS6KA2 ([9]; assay conc. 1.0E-06 M) | Residual activity, RPS6KA2 ([9]; assay conc. 1.0E-07 M) | Residual activity ([10]; PHKG1, 1.0E-06 M) | Residual activity ([10]; PHKG1, 1.0E-07 M) | also measured
1 | C#Cc1cc(Nc2ncnc3cc(I)ccc23)ccc1Cl [Compound 41] | 124 % of control | 199 % of control | 123 % of control | 135 % of control | 126 % of control | 105 % of control | 106 % of control | 122 % of control | 123 % of control | 138 % of control | 74 % of control | 92 % of control | 102 % of control | 108 % of control | 97 % of control | 103 % of control | 94 % of control | 97 % of control | 94 % of control | 97 % of control | Residual activity ([11]; 1.0E-06 M): 89 % of control; Residual activity ([11]; 1.0E-07 M): 108 % of control; Residual activity ([12]; NEK6, 1.0E-06 M): 92 % of control; Residual activity ([12]; NEK6, 1.0E-07 M): 84 % of control
2 | C#Cc1cc(Nc2ncnc3cc(OC)c(OC)cc23)ccc1Cl [Compound 45] | 107 % of control | 121 % of control | 121 % of control | 122 % of control | 128 % of control | 99 % of control | 105 % of control | 119 % of control | 118 % of control | 117 % of control | 85 % of control | 96 % of control | 104 % of control | 101 % of control | 92 % of control | 95 % of control | 86 % of control | 100 % of control | 85 % of control | 108 % of control | Residual activity ([11]; 1.0E-06 M): 87 % of control; Residual activity ([11]; 1.0E-07 M): 101 % of control; Residual activity ([12]; NEK6, 1.0E-06 M): 92 % of control; Residual activity ([12]; NEK6, 1.0E-07 M): 90 % of control
